Key:
NCI-H295R [1] = assay: maximal response (efficacy) relative to DMSO (0%) and doxorubicin (-100%); higher = less growth inhibition; conditions: 48 h
NCI-H295R [2] = assay: IC50 (antiproliferative, ATP content); conditions: 48 h

IC50 (NCI-H295R [2]) [µM]	Structure (SMILES)	maximal response (NCI-H295R [1]) [%]
13.3	CCCCC(=O)OCC(=O)[C@]1(O)Cc2c(O)c3c(c(O)c2[C@@H](O[C@H]2C[C@H](NC(=O)C(F)(F)F)[C@H](O)[C@H](C)O2)C1)C(=O)c1c(OC)cccc1C3=O	-71.8
11.9	OC[C@@]([C@@](C[C@@H](C4=C(C(C(C2=C(C=CC=C23)OC)=O)=C(C(O)=C4C5)C3=O)O)O[C@H](O1)C[C@@H]([C@@H]([C@@H]1C)O)N)5O)=O.Cl	-102
0.0188	CN(Cc1cnc2nc(N)nc(N)c2n1)c1ccc(C(=O)N[C@@H](CCC(=O)O)C(=O)O)cc1	-74.9
11.9	O=C1NCN(c2ccccc2)C12CCN(CCCC(c1ccc(F)cc1)c1ccc(F)cc1)CC2	-137
4.73	O=C(Nc1ccc(Oc2ccc(Cl)cc2)c(Cl)c1)c1cc(I)cc(I)c1O	-137
7.5	CCN(CC)CCNc1ccc(CO)c2sc3ccccc3c(=O)c12	-124
8.41	CCCCCCCC/C=C\CCCCCCCC(=O)NCc1ccc(O)c(OC)c1	-122
15	CC(=O)Oc1ccccc1C(=O)Nc1ncc([N+](=O)[O-])s1	-70.8
23.7	CC(C)=CCOc1ccc(C=CC(=O)c2ccc(OCC=C(C)C)cc2OCC(=O)O)cc1	-145
1.88	CC[P](CC)(CC)=[Au][S][C@H]1O[C@@H](COC(C)=O)[C@H](OC(C)=O)[C@@H](OC(C)=O)[C@@H]1OC(C)=O	-128
26.6	CC1(COc2ccc(CC3SC(=O)NC3=O)cc2)CCCCC1 (stereo not given)	-167
21.1	CC(=O)Nc1ccc(NC(=S)NC(=O)c2ccc(C(C)(C)C)cc2)cc1	-151
5.96	O=C(Nc1cccc(C(F)(F)F)c1)c1cc(Br)cc(Br)c1O	-140
16.8	CC(C)(O)c1ccccc1CC[C@@H](SCC1(CC(=O)[O-])CC1)c1cccc(/C=C/c2ccc3ccc(Cl)cc3n2)c1.[Na+]	-142
9.44	CC1=C(/C=C/C(C)=C/C=C/C(C)=C/C(=O)Nc2ccc(O)cc2)C(C)(C)CCC1	-125
15	CCOc1nc2cccc(C(=O)O)c2n1Cc1ccc(-c2ccccc2-c2nnn[nH]2)cc1	-145
21.1	COc1ccc(CN2CCN(C(c3ccc(F)cc3)c3ccc(F)cc3)CC2)c(OC)c1OC	-95.1
26.6	CN(C)C(=O)CCSC(SCCC(=O)[O-])c1cccc(/C=C/c2ccc3ccc(Cl)cc3n2)c1.[Na+] (stereo not given)	-77.8
8.41	Nc1nc(N)c2nc(CNc3ccc(C(=O)N[C@@H](CCC(=O)O)C(=O)O)cc3)cnc2n1	-79.1

Second part, the compound before the results:

Structure (SMILES)	IC50 (NCI-H295R [2]) [µM]	maximal response (NCI-H295R [1]) [%]
O=C(N[C@H](C(N[C@H](C(N[C@@H](C(N[C@H](C(N[C@@H](CCCNC(N)=N)C(N6CCC[C@H]6[C@](NCC)=O)=O)=O)CC(C)C)=O)CC4=CNC5=C4C=CC=C5)=O)CC3=CC=C(O)C=C3)=O)CO)[C@@H](NC([C@@H](N[C@]([C@@H](N8)CCC8=O)=O)CC7=CNC=N7)=O)CC1=CNC2=C1C=CC=C2.O=C(C)O	5.31	-124
O=C\1OC/C(=C/1)[C@H]8CC[C@@]7(O)[C@]8(C)CC[C@H]2[C@H]7CC[C@@H]3C[C@H](CC[C@]23C)O[C@@H]6O[C@H](C)[C@@H](O[C@H]5C[C@H](O)[C@H](O[C@H]4C[C@H](O)[C@H](O)[C@@H](C)O4)[C@@H](C)O5)[C@@H](O)C6	0.0841	-109
Cl.Cl.Fc1ccc(C(OCCN2CCN(CCCc3ccccc3)CC2)c2ccc(F)cc2)cc1	23.7	-154
CC(=O)[O][Hg][c]1ccccc1	2.99	-126
C[C@H]1CC[C@]2(NC1)O[C@H]1C[C@H]3[C@@H]4CC[C@H]5C[C@@H](O[C@@H]6O[C@H](CO)[C@H](O[C@@H]7O[C@H](CO)[C@@H](O)[C@H](O[C@@H]8OC[C@@H](O)[C@H](O)[C@H]8O)[C@H]7O[C@@H]7O[C@H](CO)[C@@H](O)[C@H](O)[C@H]7O)[C@H](O)[C@H]6O)CC[C@]5(C)[C@H]4CC[C@]3(C)[C@H]1[C@@H]2C	1.88	-127
Oc1c(Cl)cc(Cl)c2cccnc12	5.31	-105
COC(COC(N)=O)C1=C(N2CC2)C(=O)C(C)=C(N2CC2)C1=O (stereo not given)	0.75	-120
CC[C@H](C)[C@H]1O[C@]2(CC[C@@H]1C)C[C@@H]1C[C@@H](C/C=C(\C)[C@@H](O[C@H]3C[C@H](OC)[C@@H](O[C@H]4C[C@H](OC)[C@@H](O)[C@H](C)O4)[C@H](C)O3)[C@@H](C)/C=C/C=C3\CO[C@@H]4[C@H](O)C(C)=C[C@@H](C(=O)O1)[C@]34O)O2	4.22	-123
CC1=CC(=O)c2ccccc2C1=O	23.7	-158
[C@@]42([C@@]([C@@H](/C/1=C/OC(\C=C\1)=O)CC2)(CC[C@@H]5[C@]\3(CC[C@@H](/C=C/3CC[C@@H]45)O[C@H]6[C@@H]([C@@H]([C@H]([C@@H](O6)C)O)O)O)C)C)O	0.0128	-111
COc1cc([C@@H]2c3cc4c(cc3C(O[C@@H]3O[C@@H]5COC(c6cccs6)O[C@H]5[C@H](O)[C@H]3O)C3COC(=O)[C@@H]32)OCO4)cc(OC)c1O (stereo not given in full)	8.41	-94.9
CS(=O)(=O)O.Cc1ccc(NC(=O)c2ccc(CN3CCN(C)CC3)cc2)cc1Nc1nccc(-c2cccnc2)n1	18.8	-61.7
Oc1c(Cl)cc(Cl)c(Cl)c1Cc1c(O)c(Cl)cc(Cl)c1Cl	15	-121
COc1cc(NCc2ccc3nc(N)nc(N)c3c2C)cc(OC)c1OC.Cl.Cl.Cl	0.0133	-80.4
CC(C)CCC[C@@H](C)[C@H]1CC(=O)C2=C3CC[C@H]4C[C@@H](O)CC[C@]4(C)[C@H]3CC[C@@]21C	8.41	-65
[Cl-].[Cl-].[Hg+2]	11.9	-127
O.O.[Na+].[Na+].[O]=[Cr](=[O])([O-])[O][Cr](=[O])(=[O])[O-]	11.9	-147
Nc1ccc2cc3ccc(N)cc3nc2c1.Nc1ccc2cc3ccc(N)cc3nc2c1.O=S(=O)(O)O	18.8	-138

Structure (SMILES)	IC50 (NCI-H295R [2]) [µM]	maximal response (NCI-H295R [1]) [%]
CCCCCCCCCCCCCC[N+](C)(C)C.[Br-]	23.7	-160
Cc1cc(O)c2ccccc2c1O	21.1	-137
CC1(CN2CCC(n3c(=O)[nH]c4ccccc43)CC2)OCc2ccccc2-n2cccc21 (stereo not given)	26.6	-96.9
CC[C@@H](C(=O)[C@@H](C)[C@@H](O)[C@H](C)[C@@H]1O[C@@H]([C@@H](CC)C(=O)[O-])CC[C@@H]1C)[C@H]1O[C@]2(C=C[C@@H](O)[C@]3(CC[C@@](C)([C@H]4CC[C@](O)(CC)[C@H](C)O4)O3)O2)[C@H](C)C[C@@H]1C.[Na+]	13.3	-80.1
CCc1nc(N)nc(N)c1-c1ccc(Cl)cc1	0.75	-81.4
c1ccc2c(c1)OCC(C1=NCCN1)O2 (stereo not given)	18.8	-106
O=C\1OC/C(=C/1)[C@H]2CC[C@@]8(O)[C@]2(C)[C@H](O)C[C@H]3[C@H]8CC[C@@H]4C[C@H](CC[C@]34C)O[C@@H]7O[C@H](C)[C@@H](O[C@H]6C[C@H](O)[C@H](O[C@H]5C[C@H](O)[C@H](O)[C@@H](C)O5)[C@@H](C)O6)[C@@H](O)C7	0.188	-111
C=C1/C(=C\C=C2/CCC[C@]3(C)[C@@H]([C@H](C)CCCC(C)C)CC[C@@H]23)C[C@@H](O)C[C@@H]1O	23.7	-142
C[n+]1c2cc(N)ccc2cc2ccc(N)cc21.Nc1ccc2cc3ccc(N)cc3nc2c1.[Cl-]	21.1	-168
[C@@]82([C@@]([C@@H](/C1=C/C(=O)OC1)CC2)(CC[C@@H]9[C@]7(CCC(O[C@@H]3O[C@@H]([C@H]([C@H](C3)O)O[C@@H]6O[C@@H]([C@@H](O[C@@H]5O[C@@H]([C@@H](O[C@H]4[C@@H]([C@@H](O)[C@@H]([C@H](O4)CO)O)O)[C@H](C5)OC(=O)C)C)[C@H](C6)O)C)C)C[C@H]7CC[C@@H]89)C)C)O (stereo not given in full)	0.188	-114
Cc1cc(-c2ccc(N=Nc3c(S(=O)(=O)[O-])cc4cc(S(=O)(=O)[O-])cc(N)c4c3O)c(C)c2)ccc1N=Nc1c(S(=O)(=O)[O-])cc2cc(S(=O)(=O)[O-])cc(N)c2c1O.[Na+].[Na+].[Na+].[Na+]	11.9	-131
Oc1cccc[c]1[Hg][Cl]	2.66	-130
Oc1cc[c]([Hg][Cl])cc1	2.66	-130
O=C(OC[C@H]1O[C@@H](OC(=O)c2cc(O)c(O)c(OC(=O)c3cc(O)c(O)c(O)c3)c2)[C@H](OC(=O)c2cc(O)c(O)c(OC(=O)c3cc(O)c(O)c(O)c3)c2)[C@@H](OC(=O)c2cc(O)c(O)c(OC(=O)c3cc(O)c(O)c(O)c3)c2)[C@@H]1OC(=O)c1cc(O)c(O)c(OC(=O)c2cc(O)c(O)c(O)c2)c1)c1cc(O)c(O)c(OC(=O)c2cc(O)c(O)c(O)c2)c1	7.5	-122
[Na+].[Na+].[O-]C(=O)c4c(Cl)c(Cl)c(Cl)c(Cl)c4C=2c3cc(I)c([O-])c(I)c3OC=1C=2\C=C(\I)C(=O)C=1I	23.7	-153
O=C1C(=O)c2ncccc2-c2cccnc21	3.76	-63
O=C1OCCN1/N=C/c1ccc([N+](=O)[O-])o1	16.8	-72.7
O=C(Nc1ccc(Br)cc1)c1cc(Br)cc(Br)c1O	5.31	-118

From the supplement of paper PMC3493320
